Results on two molecules are retold here after US8840898B2, “Immunoconjugates targeting syndecan-1 expressing cells and use thereof” (priority 2004, dated 2014).

SMILES strings stand for the structures.

For data set [1] the following is noted: cited from earlier work.
The subject of data set [2] is CD138- cell lines SUDHL4 and WSU-WM. Briefly: Colorimetric survival assay (MTT), CD138- cells. Particulars: 1-50 nM or equimolar concentrations, up to 96 h. The data set is classed as cell-based, human. The protocol:
(§1) Survival of CD138^+ and CD138^− cells upon administration of B-B4-DM1, B-B4 and DM1 was examined using a tetrazolium colorimetric assay (CellTiter 96® Non-Radioactive Cell Proliferation Assay; Promega, Wis.), as previously described (Mossmann, 1983). Cells (1×10^4) were plated in 24-well plates in 1 ml RPMI complete medium and then treated as indicated. At the end of each treatment, cells were incubated with 150 μl of Dye Solution and then incubated for 4 h at 37° C. A solubilization/stop solution was then added to each well under vigorous pipetting to dissolve the formazan crystals. Absorbance was measured at 570 nm, and cell viability was estimated as percentage of untreated controls. All experiments were repeated 3 times, and each experimental condition was repeated in triplicate wells in each experiment. Data reported are average values±SD of 3 representative experiments.
(§2) The effects of B-B4-DM1 on survival of CD138^+ (MM-1S, MM-1R, Ocy-My5) and CD138^− cells (SUDHL-4 and WSU-WM) were determined using an MTT assay. […] Cell survival was measured using an MTT assay. […] CD138^+ MM cell lines MM-1S, MM-1R and Ocy-My5 were evaluated as well as CD138^− cell lines including the lymphoma cell line SUDHL4 and the Waldestrom's Macroglobulinemia cell line WSU-WM.

Data set [3] has as its system CD138+ MM cell lines MM-1S, MM-1R and Ocy-My5. Briefly: Colorimetric survival assay (MTT), CD138+ cells. In kind it is cell-based, human. As to conditions: 1-50 nM or equimolar concentrations, up to 96 h. As to the method:
as §1, §2

The test system of data set [4] is CD138- SUDHL-4 cells adherent to BMSC. The data set can be described thus: Cell proliferation assay ([3H]-thymidine) on cells adherent to BMSC, SUDHL-4. In kind it is cell-based, human. Particulars: SUDHL-4 on BMSC; 10 nM; 72 h treatment. As to the method: (§3) The effect of B-B4-DM1 on cell proliferation was measured by the extent of [^3H]-thymidine (NEN Life Science Products, Boston, Mass.) incorporation. Cells (2×10^4 cells/well) were incubated in 96-well culture plates in the presence of 70%-80% confluent BMSCs at 37° C. with or without a test-agent (in triplicate wells). [^3H]-thymidine (0.5 μCi) was then added to each well for the last 8 h. Cells were harvested onto glass filters with an automatic cell harvester (Cambridge Technology, Cambridge, Mass.) and counted using a Micro-Beta® Trilux counter (Wallac, Gaithersburgh, Md.).
(§4) Since adhesion of MM cells to BMSC (bone marrow stromal cells) protects MM cells against drug-induced apoptosis, the effect of B-B4-DM1 on proliferation of CD138^+ (Ocy-My5) MM and CD138^− (SUDHL-4) LB cells adherent to BMSC was evaluated.
(§5) Ocy-My5 (FIG. 3A) or SUDHL-4 (FIG. 3B) cells (2×10^4) were seeded on 70%-80% confluent BMSC for 24 h. Cell proliferation was measured by [^3H]thymidine incorporation following 72 h treatment with B-B4-DM1 (10 nM). Values represent the mean [^3H]-TdR incorporation (cpm) of triplicate cultures.

The test system of the next data set is CD138+ Ocy-My5 MM cells. The data set can be described thus: Detection of apoptosis (Annexin V / PI). The data set is classed as cell-based, human. As to conditions: 10 nM, 48 h exposure. The protocol:
Dual staining with FITC-labeled Annexin V and propidium iodide (PI) was carried out to detect induction of apoptotic cell death by B-B4-DM1. After treatment of 1×10^6 tumor cells for 48 h, cells were washed with PBS and re-suspended in 100 µl of HEPES buffer containing Annexin V-FITC and propidium iodide (PI) (Annexin V-FLUOS staining kit; Roche Diagnostic, Indianapolis, Ind.). Following 15 min incubation at room temperature, cells were analyzed using a Coulter Epics XL flow cytometer for the presence of an Annexin V-FITC-positive/PI-negative apoptotic cell population.
[…] Apoptotic cell death was then measured by staining with annexin V and PI and flow cytometric analysis.
Percentages of stained cells are reported in each quadrant. […] Ocy-My5 MM cells were exposed to B-B4 mAb (13.3 μg/ml) or B-B4-DM1 (10 nM) for 48 h, labeled with PI, and analyzed using flow cytometry. Percentages of cells in the S-phase (S) and G2/M phase (G2) are indicated.

Data set [5] relates to CD138+ Ocy-My5 MM cells adherent to BMSC. Briefly: Cell proliferation assay ([3H]-thymidine) on cells adherent to BMSC, Ocy-My5. The data set is classed as cell-based, human. As to conditions: 10 nM, 72 h treatment. As to the method:
as §3, §4, §5

For data set [6] the following is noted: cited from earlier work. The source holds these as a separate data set.

Take `COc1cc2cc(c1Cl)N(C)C(=O)C[C@H](OC(=O)[C@H](C)N(C)C(=O)CCS)[C@]1(C)O[C@H]1[C@H](C)[C@@H]1C[C@@](O)(NC(=O)O1)[C@H](OC)/C=C/C=C(\C)C2` [DM1, N^2-deacetyl-N^2-(3-mercapto-1-oxopropyl)-maytansine]: the “Cytotoxicity relative to maytansine” value in data set [1] (more cytotoxic) is on record as 3- to 10 fold. Besides, the “Cell survival / growth (MTT assay)” value in data set [2] is “equally and highly cytotoxic”; in data set [3] it was “equally and highly cytotoxic”. Moreover, the “Cell proliferation ([3H]thymidine incorporation)” value in data set [4] and in data set [5] was “cytotoxic to both cell lines” throughout. Also, the “annexin V+/PI- and annexin V+/PI+ fractions (apoptotic cell death)” value with CD138+ Ocy-My5 MM cells is listed as “significant increase”.
With `COc1cc2cc(c1Cl)N(C)C(=O)C[C@H](OC(=O)[C@H](C)N(C)C(C)=O)[C@]1(C)O[C@H]1[C@H](C)[C@@H]1C[C@@](O)(NC(=O)O1)[C@H](OC)/C=C/C=C(\C)C2` [maytansine], in data set [1] (higher), the “Cytotoxicity relative to anti-cancer drugs in clinical use that affect tubulin polymerization (Vinca alkaloids, taxol)” value is 200-1000 fold. Besides, the “Adverse effects in clinical trials” value in data set [6] is “serious adverse effects on the central nervous system and gastrointestinal system”.
